The experiment has as its target 5-hydroxytryptamine receptor 6 (Homo sapiens, UniProt P50406). As to the kind of experiment: Binding affinity to human 5HT6 receptor.

This note sets out measurements from ChEMBL document CHEMBL1138919, “Binding of methoxy-substituted N1-benzenesulfonylindole analogs at human 5-HT6 serotonin receptors” (Bioorg Med Chem Lett, 2006).

5-hydroxytryptamine receptor 6, sequence (P50406 whole entry): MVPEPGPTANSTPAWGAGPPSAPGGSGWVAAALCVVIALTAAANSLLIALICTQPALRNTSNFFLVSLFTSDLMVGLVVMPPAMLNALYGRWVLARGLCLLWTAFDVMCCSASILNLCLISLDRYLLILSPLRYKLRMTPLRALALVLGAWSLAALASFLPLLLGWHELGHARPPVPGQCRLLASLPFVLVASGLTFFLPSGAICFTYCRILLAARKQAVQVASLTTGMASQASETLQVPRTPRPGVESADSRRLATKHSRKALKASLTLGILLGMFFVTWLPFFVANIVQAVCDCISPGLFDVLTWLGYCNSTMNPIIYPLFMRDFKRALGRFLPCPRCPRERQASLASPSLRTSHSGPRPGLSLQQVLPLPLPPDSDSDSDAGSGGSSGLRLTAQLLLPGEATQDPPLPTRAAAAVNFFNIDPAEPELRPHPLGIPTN

Usually Ki stands for the dissociation constant of the complex between target and ligand, obtained from inhibition or displacement. The low end stands for tighter binding, the high end for weaker binding. `COc1ccc2ccn(S(=O)(=O)c3ccc(N)cc3)c2c1` came in with an inhibition constant Ki of 1.8 nM.

Molecule `COc1cc(OC)c2ccn(S(=O)(=O)c3ccc(N)cc3)c2c1` registered a Ki of 0.8 nM. The value for `CNc1ccc2c3c(n(S(=O)(=O)c4ccc(N)cc4)c2c1)CCCC3` was 205 nM; that for `CNc1cccc2c1c1c(n2S(=O)(=O)c2ccc(N)cc2)CCCC1` was 165 nM; that for `COc1cc(OC)c2c3c(n(S(=O)(=O)c4ccc(N)cc4)c2c1)CCCC3` was 210 nM.

In turn, `COc1cccc2c1ccn2S(=O)(=O)c1ccc(N)cc1` displayed a Ki of 3.3 nM.
